In patent US10167262B2, “Herbicidal substituted 3-arylpyrazoles” (FMC CORPORATION, priority 2014, dated 2019):

Tests used:
Format in all cases: in vivo
[1] = test system: barnyardgrass (Echinochloa crus-galli); test: Test B flooded paddy test, plant response rating 0-100; settings: Flood, 250 g ai/ha; scale 0 to 100 (0 no effect, 100 complete control); 13 to 15 days
Procedure, shortened: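 Ratings were visual and made relative to untreated controls after 13 to 15 greenhouse days.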

[2] = test system: Brazilian crabgrass (Digitaria horizontalis); test: Test E pre-/postemergence greenhouse test, plant response rating 0-100; settings: scale 0 to 100; for Crabgrass, Brazil plant response rating: Preemergence
Procedure, shortened: (§1)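 Sow seeds in silt loam and treat preemergence; at the same time, spray postemergence on 1- to 4-leaf plants in peat/vermiculite mix. Use a non-phytotoxic solvent plus surfactant as carrier. Hold 14–21 days in greenhouse, then score visually 0–100 against controls.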

[3] = test system: Italian ryegrass (Lolium multiflorum); test: as above; settings: scale 0 to 100; for Ryegrass, Italian plant response rating: Preemergence
Procedure, shortened: as §1

[4] = test system: arrowleaf sida (Sida rhombifolia); test: as above; settings: for Arrowleaf Sida plant response rating: Preemergence
Procedure, shortened: as §1

[5] = test system: barnyardgrass (Echinochloa crus-galli); test: as above; settings: scale 0 to 100; for Barnyardgrass plant response rating: Preemergence
Procedure, shortened: as §1

corn (Zea mays) = test: as above; settings: scale 0 to 100; for Corn plant response rating: Preemergence
Procedure, shortened: as §1

[6] = test system: dayflower (Virginia (VA) dayflower, Commelina virginica); test: as above; settings: scale 0 to 100; for Dayflower, VA plant response rating: Preemergence
Procedure, shortened: as §1

[7] = test system: fall panicum (Panicum dichotomiflorum); test: as above; settings: scale 0 to 100; for Panicum, Fall plant response rating: Preemergence
Procedure, shortened: as §1

[8] = test system: hairy beggarticks (Bidens pilosa); test: as above; settings: scale 0 to 100; for Beggarticks plant response rating: Preemergence
Procedure, shortened: as §1

[9] = test system: palmer pigweed (Amaranthus palmeri); test: as above; settings: scale 0 to 100; for Pigweed, Palmer plant response rating: Preemergence
Procedure, shortened: as §1

[10] = test system: sandbur (southern sandbur, Cenchrus echinatus); test: as above; settings: scale 0 to 100; for Sandbur plant response rating: Preemergence
Procedure, shortened: as §1

[11] = test system: wild poinsettia (Euphorbia heterophylla); test: as above; settings: scale 0 to 100; for Poinsettia, Wild plant response rating: Preemergence
Procedure, shortened: as §1

## C#CCn1cc(C(=O)c2ccccc2)c(-c2cc(Cl)cc(Cl)c2)n1 [Compound 39, [3-(3,5-dichlorophenyl)-1-(2-propyn-1-yl)-1H-pyrazol-4-yl]phenylmethanone]
[1]
  Plant response rating, Barnyardgrass: 0
[2]; Digitaria horizontalis, post-emergence, Postemergence, 31 g ai/ha, read-out: Plant response rating, Crabgrass, Brazil
  pest or weed control at 31 g/ha: 0%
[2]; Digitaria horizontalis, post-emergence, Postemergence, 62 g ai/ha, read-out: Plant response rating, Crabgrass, Brazil
  pest or weed control at 62 g/ha: 0%
[2]; Digitaria horizontalis, post-emergence, Postemergence, 125 g ai/ha, read-out: Plant response rating, Crabgrass, Brazil
  pest or weed control at 125 g/ha: 0%
[2]; Digitaria horizontalis, post-emergence, Postemergence, 250 g ai/ha, read-out: Plant response rating, Crabgrass, Brazil
  pest or weed control at 250 g/ha: 0%
[2]; Digitaria horizontalis, post-emergence, Postemergence, 500 g ai/ha, read-out: Plant response rating, Crabgrass, Brazil
  pest or weed control at 500 g/ha: 5%
[2]; 62 g ai/ha
  Crabgrass, Brazil plant response rating: 0
[2]; 125 g ai/ha
  Crabgrass, Brazil plant response rating: 0
[2]; 250 g ai/ha
  Crabgrass, Brazil plant response rating: 0
[2]; 500 g ai/ha
  Crabgrass, Brazil plant response rating: 0
[3]; Lolium multiflorum, post-emergence, Postemergence, 31 g ai/ha
  pest or weed control at 31 g/ha: 0%
[3]; Lolium multiflorum, post-emergence, Postemergence, 62 g ai/ha
  pest or weed control at 62 g/ha: 0%
[3]; Lolium multiflorum, post-emergence, Postemergence, 125 g ai/ha
  pest or weed control at 125 g/ha: 0%
[3]; Lolium multiflorum, post-emergence, Postemergence, 250 g ai/ha
  pest or weed control at 250 g/ha: 0%
[3]; Lolium multiflorum, post-emergence, Postemergence, 500 g ai/ha
  pest or weed control at 500 g/ha: 0%
[3]; 62 g ai/ha
  Ryegrass, Italian plant response rating: 0
[3]; 125 g ai/ha
  Ryegrass, Italian plant response rating: 0
[3]; 250 g ai/ha
  Ryegrass, Italian plant response rating: 0
[3]; 500 g ai/ha
  Ryegrass, Italian plant response rating: 0
[4]; 62 g ai/ha, scale 0 to 100
  Arrowleaf Sida plant response rating: 0
[4]; 125 g ai/ha, scale 0 to 100
  Arrowleaf Sida plant response rating: 90
[4]; 250 g ai/ha, scale 0 to 100
  Arrowleaf Sida plant response rating: 95
[4]; 500 g ai/ha, scale 0 to 100
  Arrowleaf Sida plant response rating: 95
[4]; Sida rhombifolia, post-emergence, Postemergence, 31 g ai/ha, scale 0 to 100
  pest or weed control at 31 g/ha: 75%
[4]; Sida rhombifolia, post-emergence, Postemergence, 62 g ai/ha, scale 0 to 100
  pest or weed control at 62 g/ha: 80%
[4]; Sida rhombifolia, post-emergence, Postemergence, 125 g ai/ha, scale 0 to 100
  pest or weed control at 125 g/ha: 85%
[4]; Sida rhombifolia, post-emergence, Postemergence, 250 g ai/ha, scale 0 to 100
  pest or weed control at 250 g/ha: 90%
[4]; Sida rhombifolia, post-emergence, Postemergence, 500 g ai/ha, scale 0 to 100 (0 no effect, 100 complete control)
  pest or weed control at 500 g/ha: 90%
[5]; Echinochloa crus-galli, post-emergence, Postemergence, 31 g ai/ha
  pest or weed control at 31 g/ha: 0%
[5]; Echinochloa crus-galli, post-emergence, Postemergence, 62 g ai/ha
  pest or weed control at 62 g/ha: 0%
[5]; Echinochloa crus-galli, post-emergence, Postemergence, 125 g ai/ha
  pest or weed control at 125 g/ha: 0%
[5]; Echinochloa crus-galli, post-emergence, Postemergence, 250 g ai/ha
  pest or weed control at 250 g/ha: 0%
[5]; Echinochloa crus-galli, post-emergence, Postemergence, 500 g ai/ha
  pest or weed control at 500 g/ha: 10%
[5]; 62 g ai/ha
  Barnyardgrass plant response rating: 0
[5]; 125 g ai/ha
  Barnyardgrass plant response rating: 0
[5]; 250 g ai/ha
  Barnyardgrass plant response rating: 0
[5]; 500 g ai/ha
  Barnyardgrass plant response rating: 0
Corn (Zea mays); 62 g ai/ha
  Corn plant response rating: 0
Corn (Zea mays); 125 g ai/ha
  Corn plant response rating: 0
Corn (Zea mays); 250 g ai/ha
  Corn plant response rating: 0
Corn (Zea mays); 500 g ai/ha
  Corn plant response rating: 0
Corn (Zea mays); Zea mays, post-emergence, Postemergence, 31 g ai/ha
  Corn plant response rating (crop injury, 0 = no effect, 100 = complete kill) at 31 g/ha: 0%
Corn (Zea mays); Zea mays, post-emergence, Postemergence, 62 g ai/ha
  Corn plant response rating (crop injury, 0 = no effect, 100 = complete kill) at 62 g/ha: 0%
Corn (Zea mays); Zea mays, post-emergence, Postemergence, 125 g ai/ha
  Corn plant response rating (crop injury, 0 = no effect, 100 = complete kill) at 125 g/ha: 0%
Corn (Zea mays); Zea mays, post-emergence, Postemergence, 250 g ai/ha
  Corn plant response rating (crop injury, 0 = no effect, 100 = complete kill) at 250 g/ha: 0%
Corn (Zea mays); Zea mays, post-emergence, Postemergence, 500 g ai/ha
  Corn plant response rating (crop injury, 0 = no effect, 100 = complete kill) at 500 g/ha: 0%
[6]; Commelina virginica, post-emergence, Postemergence, 31 g ai/ha
  pest or weed control at 31 g/ha: 0%
[6]; Commelina virginica, post-emergence, Postemergence, 62 g ai/ha
  pest or weed control at 62 g/ha: 0%
[6]; Commelina virginica, post-emergence, Postemergence, 125 g ai/ha
  pest or weed control at 125 g/ha: 0%
[6]; Commelina virginica, post-emergence, Postemergence, 250 g ai/ha
  pest or weed control at 250 g/ha: 0%
[6]; Commelina virginica, post-emergence, Postemergence, 500 g ai/ha
  pest or weed control at 500 g/ha: 0%
[6]; 62 g ai/ha
  Dayflower, VA plant response rating: 0
[6]; 125 g ai/ha
  Dayflower, VA plant response rating: 0
[6]; 250 g ai/ha
  Dayflower, VA plant response rating: 0
[6]; 500 g ai/ha
  Dayflower, VA plant response rating: 0
[7]; Panicum dichotomiflorum, post-emergence, Postemergence, 31 g ai/ha
  pest or weed control at 31 g/ha: 0%
[7]; Panicum dichotomiflorum, post-emergence, Postemergence, 62 g ai/ha
  pest or weed control at 62 g/ha: 0%
[7]; Panicum dichotomiflorum, post-emergence, Postemergence, 125 g ai/ha
  pest or weed control at 125 g/ha: 0%
[7]; Panicum dichotomiflorum, post-emergence, Postemergence, 250 g ai/ha
  pest or weed control at 250 g/ha: 0%
[7]; Panicum dichotomiflorum, post-emergence, Postemergence, 500 g ai/ha
  pest or weed control at 500 g/ha: 0%
[7]; 62 g ai/ha
  Panicum, Fall plant response rating: 0
[7]; 250 g ai/ha
  Panicum, Fall plant response rating: 0
[8]; Bidens pilosa, post-emergence, Postemergence, 31 g ai/ha
  pest or weed control at 31 g/ha: 80%
[8]; Bidens pilosa, post-emergence, Postemergence, 62 g ai/ha
  pest or weed control at 62 g/ha: 85%
[8]; Bidens pilosa, post-emergence, Postemergence, 125 g ai/ha
  pest or weed control at 125 g/ha: 90%
[8]; Bidens pilosa, post-emergence, Postemergence, 250 g ai/ha
  pest or weed control at 250 g/ha: 95%
[8]; Bidens pilosa, post-emergence, Postemergence, 500 g ai/ha
  pest or weed control at 500 g/ha: 95%
[8]; 62 g ai/ha
  Beggarticks plant response rating: 0
[8]; 125 g ai/ha
  Beggarticks plant response rating: 0
[8]; 250 g ai/ha
  Beggarticks plant response rating: 0
[8]; 500 g ai/ha
  Beggarticks plant response rating: 0
[9]; Amaranthus palmeri, post-emergence, Postemergence, 31 g ai/ha
  pest or weed control at 31 g/ha: 70%
[9]; Amaranthus palmeri, post-emergence, Postemergence, 62 g ai/ha
  pest or weed control at 62 g/ha: 80%
[9]; Amaranthus palmeri, post-emergence, Postemergence, 125 g ai/ha
  pest or weed control at 125 g/ha: 80%
[9]; Amaranthus palmeri, post-emergence, Postemergence, 250 g ai/ha
  pest or weed control at 250 g/ha: 85%
[9]; Amaranthus palmeri, post-emergence, Postemergence, 500 g ai/ha
  pest or weed control at 500 g/ha: 98%
[9]; 62 g ai/ha
  Pigweed, Palmer plant response rating: 20
[9]; 125 g ai/ha
  Pigweed, Palmer plant response rating: 50
[9]; 250 g ai/ha
  Pigweed, Palmer plant response rating: 90
[9]; 500 g ai/ha
  Pigweed, Palmer plant response rating: 85
[10]; Cenchrus echinatus, post-emergence, Postemergence, 31 g ai/ha
  pest or weed control at 31 g/ha: 0%
[10]; Cenchrus echinatus, post-emergence, Postemergence, 62 g ai/ha
  pest or weed control at 62 g/ha: 0%
[10]; Cenchrus echinatus, post-emergence, Postemergence, 125 g ai/ha
  pest or weed control at 125 g/ha: 0%
[10]; Cenchrus echinatus, post-emergence, Postemergence, 250 g ai/ha
  pest or weed control at 250 g/ha: 0%
[10]; Cenchrus echinatus, post-emergence, Postemergence, 500 g ai/ha
  pest or weed control at 500 g/ha: 0%
[10]; 62 g ai/ha
  Sandbur plant response rating: 0
[10]; 125 g ai/ha
  Sandbur plant response rating: 0
[10]; 250 g ai/ha
  Sandbur plant response rating: 0
[10]; 500 g ai/ha
  Sandbur plant response rating: 0
[11]; Euphorbia heterophylla, post-emergence, Postemergence, 31 g ai/ha, read-out: Plant response rating, Poinsettia, Wild
  pest or weed control at 31 g/ha: 0%
[11]; Euphorbia heterophylla, post-emergence, Postemergence, 62 g ai/ha, read-out: Plant response rating, Poinsettia, Wild
  pest or weed control at 62 g/ha: 0%
[11]; Euphorbia heterophylla, post-emergence, Postemergence, 125 g ai/ha, read-out: Plant response rating, Poinsettia, Wild
  pest or weed control at 125 g/ha: 0%
[11]; Euphorbia heterophylla, post-emergence, Postemergence, 250 g ai/ha, read-out: Plant response rating, Poinsettia, Wild
  pest or weed control at 250 g/ha: 0%
[11]; Euphorbia heterophylla, post-emergence, Postemergence, 500 g ai/ha, read-out: Plant response rating, Poinsettia, Wild
  pest or weed control at 500 g/ha: 10%
[11]; 62 g ai/ha
  Poinsettia, Wild plant response rating: 0
[11]; 125 g ai/ha
  Poinsettia, Wild plant response rating: 0
[11]; 250 g ai/ha
  Poinsettia, Wild plant response rating: 0
[11]; 500 g ai/ha
  Poinsettia, Wild plant response rating: 0
